Data published in US20250195536A1, “BICYCLOOCTANE KRAS INHIBITORS” (Incyte Corporation, priority 2023, published 2025).

Columns and labels:
KRAS G12V = KRAS G12V (Homo sapiens, UniProt P01116, G12V); assay: GDP-GTP exchange assay (KRAS G12V); format: biochemical; conditions: bodipy-GDP/GppNHp exchange with SOS1; 3 h incubation after GppNHp-SOS1;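 also: one dagger IC50 up to 100 nM and two daggers above 100 nM up to 1 μM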
In short: (§1)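 IC50 came from a four-parameter fit of fluorescence loss (485/520 nm) as SOS1 (150 nM) swapped bodipy-GDP for GppNHp (500 μM) on 2.5 nM KRAS, final concentrations. Compounds were pre-incubated 4 h at r.t. (pH 7.5 Hepes, 10 mM MgCl2); exchange ran 2 h (G12D) or 3 h (G12V).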

[1] = Caco2 assay (permeability, Papp A-B); format: in vitro ADME; conditions: human, Caco-2, absorptive direction (A-B), 50 μM test compound, 4% BSA in receiver
In short: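 Absorptive (A-B) Papp: 50 μM test compound in HBSS added to apical side of 22-25-day Caco-2 monolayers (TEER 300 Ω·cm^2), receiver buffer containing 4% BSA. After 120 min at 37 °C, 5% CO2, both sides analysed by LCMS; Papp calculated from flux rate normalized to area and donor amount.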

KRAS G12D = KRAS G12D (Homo sapiens, UniProt P01116, G12D); assay: GDP-GTP exchange assay (KRAS G12D); format: biochemical; conditions: bodipy-GDP/GppNHp exchange with SOS1; 4 h pre-incubation, 2 h reaction;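 also: one dagger IC50 up to 100 nM and two daggers above 100 nM up to 1 μM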
In short: as §1

Chain of KRAS G12D (P01116 1-188 isoform P01116-2 G12D): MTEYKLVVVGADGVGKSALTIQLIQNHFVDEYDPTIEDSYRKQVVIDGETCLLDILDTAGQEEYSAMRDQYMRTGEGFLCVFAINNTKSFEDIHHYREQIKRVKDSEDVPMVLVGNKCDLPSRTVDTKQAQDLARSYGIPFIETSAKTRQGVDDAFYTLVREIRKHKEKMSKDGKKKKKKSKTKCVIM
Chain of KRAS G12V (P01116 1-188 isoform P01116-2 G12V): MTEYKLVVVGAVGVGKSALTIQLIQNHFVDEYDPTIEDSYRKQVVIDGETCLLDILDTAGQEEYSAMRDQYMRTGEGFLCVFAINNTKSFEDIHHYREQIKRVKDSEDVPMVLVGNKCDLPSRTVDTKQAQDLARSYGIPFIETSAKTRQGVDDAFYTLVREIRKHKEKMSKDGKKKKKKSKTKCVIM

G12V_exchange (KRAS_G12V exchange assay IC50) (KRAS G12V)	Papp A→B at 120 min, 50 μM [1] [×10⁻⁶ cm/s]	G12D_exchange (KRAS_G12D exchange assay IC50) (KRAS G12D)	SMILES
†	≤ 0.5	†	Cc1nc2c(F)c(-c3cccc(Cl)c3Cl)c(CCC#N)cc2c2c1cc([C@H]1[C@H]3C[C@H](CN(c4cnccn4)C3)N1C(=O)C1CC1)n2[C@H]1[C@H]2CN[C@@H]1C2 (atropisomer, axis not shown; (Ra)) [Example 40, 3-((Ra)-1-((1R,4R,5S)-2-azabicyclo[2.1.1]hexan-5-yl)-2-((1S,5R,7R)-6-(cyclopropanecarbonyl)-3-(pyrazin-2-yl)-3,6-diazabicyclo[3.2.1]octan-7-yl)-7-(2,3-dichlorophenyl)-6-fluoro-4-methyl-1H-pyrrolo[3,2-c]quinolin-8-yl)propanenitrile]
†	≤ 0.5	†	Cc1nc2c(F)c(-c3cccc(Cl)c3Cl)c(CCC#N)cc2c2c1cc([C@H]1[C@H]3C[C@H](CN(c4ncc(C(F)(F)F)cn4)C3)N1C(=O)C1CC1)n2[C@H]1[C@H]2CN[C@@H]1C2 (atropisomer, axis not shown; (Ra)) [Example 41, 3-((Ra)-1-((1R,4R,5S)-2-azabicyclo[2.1.1]hexan-5-yl)-2-((1S,5R,7R)-6-(cyclopropanecarbonyl)-3-(5-(trifluoromethyl)pyrimidin-2-yl)-3,6-diazabicyclo[3.2.1]octan-7-yl)-7-(2,3-dichlorophenyl)-6-fluoro-4-methyl-1H-pyrrolo[3,2-c]quinolin-8-yl)propanenitrile]
†	≤ 0.5	†	COc1ccnc(N2C[C@@H]3C[C@H](C2)N(C(=O)C2CC2)[C@H]3c2cc3c(C)nc4c(F)c(-c5cccc(Cl)c5Cl)c(CCC#N)cc4c3n2[C@H]2[C@H]3CN[C@@H]2C3)n1 (atropisomer, axis not shown; (Ra)) [Example 42, 3-((Ra)-1-((1R,4R,5S)-2-azabicyclo[2.1.1]hexan-5-yl)-2-((1S,5R,7R)-6-(cyclopropanecarbonyl)-3-(4-methoxypyrimidin-2-yl)-3,6-diazabicyclo[3.2.1]octan-7-yl)-7-(2,3-dichlorophenyl)-6-fluoro-4-methyl-1H-pyrrolo[3,2-c]quinolin-8-yl)propanenitrile]
†	≤ 0.5	†	Cc1nc2c(F)c(-c3cccc(Cl)c3Cl)c(CCC#N)cc2c2c1cc([C@H]1[C@H]3C[C@H](CN(c4nccc(C(F)(F)F)n4)C3)N1C(=O)C1CC1)n2[C@H]1[C@H]2CN[C@@H]1C2 (atropisomer, axis not shown; (Ra)) [Example 43, 3-((Ra)-1-((1R,4R,5S)-2-azabicyclo[2.1.1]hexan-5-yl)-2-((1S,5R,7R)-6-(cyclopropanecarbonyl)-3-(4-(trifluoromethyl)pyrimidin-2-yl)-3,6-diazabicyclo[3.2.1]octan-7-yl)-7-(2,3-dichlorophenyl)-6-fluoro-4-methyl-1H-pyrrolo[3,2-c]quinolin-8-yl)propanenitrile]
†	≤ 0.5	†	Cc1nc2c(F)c(-c3cccc(Cl)c3Cl)c(CCC#N)cc2c2c1cc([C@H]1[C@H]3C[C@H](CN(c4cnc(C(F)(F)F)cn4)C3)N1C(=O)C1CC1)n2[C@H]1[C@H]2CN[C@@H]1C2 (atropisomer, axis not shown; (Ra)) [Example 44, 3-((Ra)-1-((1R,4R,5S)-2-azabicyclo[2.1.1]hexan-5-yl)-2-((1S,5R,7R)-6-(cyclopropanecarbonyl)-3-(5-(trifluoromethyl)pyrazin-2-yl)-3,6-diazabicyclo[3.2.1]octan-7-yl)-7-(2,3-dichlorophenyl)-6-fluoro-4-methyl-1H-pyrrolo[3,2-c]quinolin-8-yl)propanenitrile]
†	≤ 0.5	†	Cc1nc2c(F)c(-c3cccc(Cl)c3Cl)c(CCC#N)cc2c2c1cc([C@H]1[C@H]3C[C@H](CN(c4ncc(OC(F)F)cn4)C3)N1C(=O)C1CC1)n2[C@H]1[C@H]2CN[C@@H]1C2 (atropisomer, axis not shown; (Ra)) [Example 45, 3-((Ra)-1-((1R,4R,5S)-2-azabicyclo[2.1.1]hexan-5-yl)-2-((1S,5R,7R)-6-(cyclopropanecarbonyl)-3-(5-(difluoromethoxy)pyrimidin-2-yl)-3,6-diazabicyclo[3.2.1]octan-7-yl)-7-(2,3-dichlorophenyl)-6-fluoro-4-methyl-1H-pyrrolo[3,2-c]quinolin-8-yl)propanenitrile]
†	≤ 0.5	†	Cc1nc2c(F)c(-c3cccc(Cl)c3Cl)c(CCC#N)cc2c2c1cc([C@H]1[C@H]3C[C@H](CN(c4ncccc4F)C3)N1C(=O)C1CC1)n2[C@H]1[C@H]2CN[C@@H]1C2 (atropisomer, axis not shown; (Ra)) [Example 46, 3-((Ra)-1-((1R,4R,5S)-2-azabicyclo[2.1.1]hexan-5-yl)-2-((1S,5R,7R)-6-(cyclopropanecarbonyl)-3-(3-fluoropyridin-2-yl)-3,6-diazabicyclo[3.2.1]octan-7-yl)-7-(2,3-dichlorophenyl)-6-fluoro-4-methyl-1H-pyrrolo[3,2-c]quinolin-8-yl)propanenitrile]
†	≤ 0.5	††	Cc1nc2c(F)c(-c3cccc(Cl)c3Cl)c(CCC#N)cc2c2c1cc([C@H]1[C@H]3C[C@H](CN(c4ncccc4C#N)C3)N1C(=O)C1CC1)n2[C@H]1[C@H]2CN[C@@H]1C2 (atropisomer, axis not shown; (Ra)) [Example 47, 2-((1S,5R,7R)-7-((Ra)-1-((1R,4R,5S)-2-azabicyclo[2.1.1]hexan-5-yl)-8-(2-cyanoethyl)-7-(2,3-dichlorophenyl)-6-fluoro-4-methyl-1H-pyrrolo[3,2-c]quinolin-2-yl)-6-(cyclopropanecarbonyl)-3,6-diazabicyclo[3.2.1]octan-3-yl)nicotinonitrile]
†	0.5 to 1	†	Cc1cccnc1N1C[C@@H]2C[C@H](C1)N(C(=O)C1CC1)[C@H]2c1cc2c(C)nc3c(F)c(-c4cccc(Cl)c4Cl)c(CCC#N)cc3c2n1[C@H]1[C@H]2CN[C@@H]1C2 (atropisomer, axis not shown; (Ra)) [Example 48, 3-((Ra)-1-((1R,4R,5S)-2-azabicyclo[2.1.1]hexan-5-yl)-2-((1S,5R,7R)-6-(cyclopropanecarbonyl)-3-(3-methylpyridin-2-yl)-3,6-diazabicyclo[3.2.1]octan-7-yl)-7-(2,3-dichlorophenyl)-6-fluoro-4-methyl-1H-pyrrolo[3,2-c]quinolin-8-yl)propanenitrile]
†	≤ 0.5	†	COc1cccnc1N1C[C@@H]2C[C@H](C1)N(C(=O)C1CC1)[C@H]2c1cc2c(C)nc3c(F)c(-c4cccc(Cl)c4Cl)c(CCC#N)cc3c2n1[C@H]1[C@H]2CN[C@@H]1C2 (atropisomer, axis not shown; (Ra)) [Example 49, 3-((Ra)-1-((1R,4R,5S)-2-azabicyclo[2.1.1]hexan-5-yl)-2-((1S,5R,7R)-6-(cyclopropanecarbonyl)-3-(3-methoxypyridin-2-yl)-3,6-diazabicyclo[3.2.1]octan-7-yl)-7-(2,3-dichlorophenyl)-6-fluoro-4-methyl-1H-pyrrolo[3,2-c]quinolin-8-yl)propanenitrile]
†	≤ 0.5	††	Cc1nc2c(F)c(-c3cccc(Cl)c3Cl)c(CCC#N)cc2c2c1cc([C@H]1[C@H]3C[C@H](CN(c4nccc(C(F)(F)F)c4F)C3)N1C(=O)C1CC1)n2[C@H]1[C@H]2CN[C@@H]1C2 (atropisomer, axis not shown; (Ra)) [Example 50, 3-((Ra)-1-((1R,4R,5S)-2-azabicyclo[2.1.1]hexan-5-yl)-2-((1S,5R,7R)-6-(cyclopropanecarbonyl)-3-(3-fluoro-4-(trifluoromethyl)pyridin-2-yl)-3,6-diazabicyclo[3.2.1]octan-7-yl)-7-(2,3-dichlorophenyl)-6-fluoro-4-methyl-1H-pyrrolo[3,2-c]quinolin-8-yl)propanenitrile]
†	0.5 to 1	†	Cc1ccnc(N2C[C@@H]3C[C@H](C2)N(C(=O)C2CC2)[C@H]3c2cc3c(C)nc4c(F)c(-c5cccc(Cl)c5Cl)c(CCC#N)cc4c3n2[C@H]2[C@H]3CN[C@@H]2C3)c1F (atropisomer, axis not shown; (Ra)) [Example 51, 3-((Ra)-1-((1R,4R,5S)-2-azabicyclo[2.1.1]hexan-5-yl)-2-((1S,5R,7R)-6-(cyclopropanecarbonyl)-3-(3-fluoro-4-methylpyridin-2-yl)-3,6-diazabicyclo[3.2.1]octan-7-yl)-7-(2,3-dichlorophenyl)-6-fluoro-4-methyl-1H-pyrrolo[3,2-c]quinolin-8-yl)propanenitrile]
